We go through 10 compounds from US20140296354A1, “SYNTHESIS OF PEPTOID-BASED SMALL MOLECULAR GELATORS FROM MULTIPLE COMPONENT REACTIONS” (OLD DOMINION UNIVERSITY RESEARCH FOUNDATION, priority 2013, published 2014).

For orientation: melting point means the temperature, or range, at which the solid turns liquid.

The nature of data set [1]: Gelation test in solvents at room temperature. It counts as physicochemical. Further details: key to Gelation test result: I, insoluble; P, precipitating; S, soluble at ~20 mg/mL; G, gel at room temperature; number is minimum gelation concentration. The settings on record: for Gelation test result / minimum gelation concentration: room temperature; for MGC in DMSO:H2O (1:2): Table 2; for preliminary MGC (stable gel) / Gelation result: Table 3. The protocol: (§1) Gelation tests were performed by adding incremental amounts of compounds to a solvent or solvent system at room temperature and observing the results (i.e., gel formation, solubility of compounds, insolubility of compounds, or formation of a precipitate). […] The term “precipation” means that the compound dissolves upon heating and sonicating, however, it crashes out of solution when the heat is removed.
(§2) After the compounds were synthesized, they were screened for gelation properties. […] For the compounds with new chiral centers, they formed gels in aqueous environment preferentially.

Another data set is described as follows: Gel melting temperatures. It is filed as physicochemical. The settings on record: gel in DMSO:H2O (1:2) at its minimum gelation concentration. On the procedure: Melting points were measured for compounds that were gelators in the DMSO:H2O (1:2) solvent system. In general, a compound was dissolved in heated solvent in a small vial at its minimum gelation concentration and transferred into a tube (e.g., an NMR tube) while the mixture was still warm. The tube was sonicated and cooled until a stable gel formed. The tube was immersed in an oil bath and the temperature of the solid-to-liquid phase transition was monitored using a thermometer as the oil bath temperature was changed. Gel melting temperatures are presented in […]

The nature of data set [2]: Gelation test in solvents at room temperature. It counts as physicochemical. Further details: key: I, insoluble; P, precipitating; S, soluble at ~20 mg/mL; G, gel at room temperature; number is minimum gelation concentration. The settings on record: Water; Table 3. The protocol:
as §1, §2

Data set [3] is described as follows: Gelation test in solvents at room temperature. It counts as physicochemical. Set-up: key: S, soluble (starting test at 20 mg/mL); I, insoluble; P, precipitate; G, stable gel, the numbers after G are preliminary MGCs in mg/mL; UG, slightly unstable gels or partial gels, concentrations are 20 mg/mL unless otherwise noted. The settings on record: Table 3. The protocol: as §1, §2

`C[C@H](c1ccccc1)N(CC(=O)NC1CCCCC1)C(=O)c1ccc(Br)cc1` [Compound 19, (R)-4-bromo-N-(2-(cyclohexylamino)-2-oxoethyl)-N-(1-phenylethyl)benzamide] displayed a melting point of 140 to 142 °C. Moreover, in data set [1] (DMSO:H2O (1:1)), the Gelation test result is listed as “G” and the minimum gelation concentration stood at 20.0 mg/mL. For the same compound, the Gelation test result in data set [1] (DMSO:H2O (1:2)) is “P”. Besides, the Gelation test result in data set [1] (EtOH) is listed as “S (S, soluble at ~20 mg/mL)”. In addition, in data set [1] (EtOH:H2O (1:1)), the Gelation test result is “P”. Also, the Gelation test result in data set [1] (EtOH:H2O (1:2)) was “P”. The Gelation test result in data set [1] (H2O) is reported as “P”. The Gelation test result in data set [1] (Hexane) is “S^(c) (S, soluble at ~20 mg/mL)”.
`COC1OC2COC(c3ccccc3)OC2C(O)C1N(CC(=O)NC1CCCCC1)C(=O)c1ccc(Br)cc1` (centres unmarked) [Compound 25, 4-Bromo-N-(2-(cyclohexylamino)-2-oxoethyl)-N-(8-hydroxy-6-methoxy-2-phenyl-hexahydropyrano[3,2-d][1,3]dioxin-7-yl)benzamide] showed a melting point of 291 to 293 °C. Further, in data set [1] (DMSO:H2O (1:1)), the Gelation test result was “G” and the minimum gelation concentration is 20.0 mg/mL. Besides, the Gelation test result in data set [1] (DMSO:H2O (1:2)) was “P”. For the same compound, in data set [1] (EtOH), the Gelation test result was “G” and the minimum gelation concentration came out at 20.0 mg/mL. Besides, in data set [1] (EtOH:H2O (1:1)), the Gelation test result is “G” and the minimum gelation concentration stood at 20.0 mg/mL. Further, in data set [1] (EtOH:H2O (1:2)), the Gelation test result is given as “G” and the minimum gelation concentration was determined as 20.0 mg/mL. The Gelation test result in data set [1] (H2O) is “I”. The Gelation test result in data set [1] (Hexane) is on record as “P”.
As for `O=C(CN(Cc1ccccc1)C(=O)c1ccccc1)NC1CCCCC1` [Compound 16, N-benzyl-N-(2-(cyclohexylamino)-2-oxoethyl)benzamide], the melting point was in the range of 104 to 106 °C. Further, the Gelation test result in data set [1] (DMSO:H2O (1:1)) is listed as “P”. Further, in data set [1] (DMSO:H2O (1:2)), the Gelation test result is listed as “P”. For the same compound, the Gelation test result in data set [1] (EtOH) is recorded as “P”. For the same compound, the Gelation test result in data set [1] (EtOH:H2O (1:1)) is “P”. In data set [1] (EtOH:H2O (1:2)), the Gelation test result is “P”. Further, the Gelation test result in data set [1] (H2O) was “I”. The Gelation test result in data set [1] (Hexane) is given as “I”.
In turn, `COC1OC2COC(c3ccccc3)OC2C(O)C1N(CC(=O)NC1CCCCC1)C(=O)c1ccccc1` (centres unmarked) [Compound 24, N-(2-(cyclohexylamino)-2-oxoethyl)-N-(8-hydroxy-6-methoxy-2-phenyl-hexahydropyrano[3,2-d][1,3]dioxin-7-yl)benzamide] gave a melting point of 261 to 263 °C. In data set [1] (DMSO:H2O (1:1)), the Gelation test result is “P”. The Gelation test result in data set [1] (DMSO:H2O (1:2)) is given as “P”. Besides, in data set [1] (EtOH), the Gelation test result is on record as “G” and the minimum gelation concentration was 20.0 mg/mL. The Gelation test result in data set [1] (EtOH:H2O (1:1)) was “P”. In addition, in data set [1] (EtOH:H2O (1:2)), the Gelation test result is “G” and the minimum gelation concentration came out at 20.0 mg/mL. In addition, the Gelation test result in data set [1] (H2O) is “I”. In addition, in data set [1] (Hexane), the Gelation test result is “P”.
For `COc1ccc(CN(CC(=O)NC2CCCCC2)C(=O)c2ccc(Br)cc2)cc1` [Compound 20, N-(4-methoxybenzyl)-4-bromo-N-(2-(cyclohexylamino)-2-oxoethyl)benzamide], the melting point fell in the range of 174 to 176 °C. For the same compound, in data set [1] (DMSO:H2O (1:1)), the Gelation test result is given as “G” and the minimum gelation concentration was determined as 5.0 mg/mL. Moreover, in data set [1] (DMSO:H2O (1:2)), the Gelation test result is recorded as “G”, the minimum gelation concentration was 6.6 mg/mL and the “MGC in DMSO:H2O (1:2)” value was found to be 6.6 mg/mL. For the same compound, the Gelation test result in data set [1] (EtOH) is “P”. In data set [1] (EtOH:H2O (1:1)), the Gelation test result was “G” and the minimum gelation concentration is on record as 10.0 mg/mL. Moreover, the Gelation test result in data set [1] (EtOH:H2O (1:2)) was “P”. For the same compound, the Gelation test result in data set [1] (H2O) is listed as “P”. Further, in data set [1] (Hexane), the Gelation test result is listed as “P”. In “Gel melting temperatures”, the “T1, temperature at which gel begins to melt” value (from here on “T1, temperature”) worked out at 91 °C; the “T2, temperature at which gel is approximately half melted” value (shortened to “T2, temperature”) turned out to be 110 °C; the “T3, temperature at which gel is fully melted” value (from here on “T3, temperature”) was 120 °C.
For `O=C(CN(Cc1ccccc1)C(=O)c1ccc(Br)cc1)NC1CCCCC1` [Compound 17, N-benzyl-4-bromo-N-(2-(cyclohexylamino)-2-oxoethyl)benzamide], the melting point fell in the range of 168 to 170 °C. Besides, in data set [1] (DMSO:H2O (1:1)), the Gelation test result is given as “G” and the minimum gelation concentration is 10.0 mg/mL. Moreover, in data set [1] (DMSO:H2O (1:2)), the Gelation test result is “G”, the minimum gelation concentration was determined as 5.0 mg/mL and the “MGC in DMSO:H2O (1:2)” value worked out at 5.0 mg/mL. Moreover, the Gelation test result in data set [1] (EtOH) is given as “S (S, soluble at ~20 mg/mL)”. Also, in data set [1] (EtOH:H2O (1:1)), the Gelation test result is “G” and the minimum gelation concentration is given as 20.0 mg/mL. For the same compound, the Gelation test result in data set [1] (EtOH:H2O (1:2)) is on record as “P”. Moreover, the Gelation test result in data set [1] (H2O) is recorded as “P”. Further, the Gelation test result in data set [1] (Hexane) is on record as “I”. Further, in the data set “Gel melting temperatures”, the “T1, temperature” value is 78 °C; the “T2, temperature” value turned out to be 80 °C; the “T3, temperature” value came out at 90 °C.
In turn, `CCOC(=O)CNC(=O)CN(Cc1ccc(OC)cc1)C(=O)c1ccccc1` [Compound 23, Ethyl 2-(2-(N-(4-methoxybenzyl)benzamido)acetamido)acetate] registered a melting point of 94 to 96 °C. Moreover, the Gelation test result in data set [1] (DMSO:H2O (1:1)) was “P”. Moreover, in data set [1] (DMSO:H2O (1:2)), the Gelation test result is given as “G”, the minimum gelation concentration came out at 20.0 mg/mL and the “MGC in DMSO:H2O (1:2)” value was 20.0 mg/mL. Moreover, the Gelation test result in data set [1] (EtOH) is listed as “S (S, soluble at ~20 mg/mL)”. Also, in data set [1] (EtOH:H2O (1:1)), the Gelation test result is given as “P”. The Gelation test result in data set [1] (EtOH:H2O (1:2)) is reported as “P”. Besides, the Gelation test result in data set [1] (H2O) is listed as “S (S, soluble at ~20 mg/mL)”. For the same compound, in data set [1] (Hexane), the Gelation test result was “I”. In “Gel melting temperatures”, the “T1, temperature” value is 50 °C; the “T2, temperature” value worked out at 52 °C; the “T3, temperature” value was found to be 58 °C.
The compound `C#CCCC(=O)N(CC(=O)NC1CCCCC1)Cc1ccccc1` [Compound 15, N-benzyl-N-(2-(cyclohexylamino)-2-oxoethyl)pent-4-ynamide] returned a melting point of 138 to 140 °C. In data set [1] (DMSO:H2O (1:1)), the Gelation test result is “G” and the minimum gelation concentration came to 20.0 mg/mL. Besides, in data set [1] (DMSO:H2O (1:2)), the Gelation test result is listed as “G”, the minimum gelation concentration was found to be 20.0 mg/mL and the “MGC in DMSO:H2O (1:2)” value came to 20.0 mg/mL. Moreover, the Gelation test result in data set [1] (EtOH) is reported as “P”. In data set [1] (EtOH:H2O (1:1)), the Gelation test result is “P”. Further, in data set [1] (EtOH:H2O (1:2)), the Gelation test result is reported as “G” and the minimum gelation concentration is given as 20.0 mg/mL. The Gelation test result in data set [1] (H2O) is recorded as “S (S, soluble at ~20 mg/mL)”. Also, in data set [1] (Hexane), the Gelation test result is recorded as “P^(b)”. Moreover, in the data set “Gel melting temperatures”, the “T1, temperature” value was 95 °C; the “T2, temperature” value was found to be 100 °C; the “T3, temperature” value is 110 °C.
`CC(=O)N(CC(=O)NC1CCCCC1)Cc1ccccc1` [Compound 14, N-benzyl-N-(2-(cyclohexylamino)-2-oxoethyl)acetamide]: the melting point lay in the range of 122 to 124 °C. The Gelation test result in data set [1] (DMSO:H2O (1:1)) is reported as “S (S, soluble at ~20 mg/mL)”. The Gelation test result in data set [1] (DMSO:H2O (1:2)) is listed as “P”. Besides, the Gelation test result in data set [1] (EtOH) is reported as “S (S, soluble at ~20 mg/mL)”. Further, the Gelation test result in data set [1] (EtOH:H2O (1:1)) is on record as “S (S, soluble at ~20 mg/mL)”. In data set [1] (EtOH:H2O (1:2)), the Gelation test result was “P”. The Gelation test result in data set [1] (H2O) was “P”. Besides, the Gelation test result in data set [1] (Hexane) is given as “I^(a)”.
With `COC1OC(CO)C(O)C(O)C1N(CC(=O)NC1CCCCC1)C(=O)c1ccc(Br)cc1` (centres unmarked) [Compound 40], the Gelation result was “I” in data set [2]; “S (S, soluble (starting test at 20 mg/mL))” in data set [1] (EtOH); “S (S, soluble (starting test at 20 mg/mL))” in data set [1] (Hexane); “G” in data set [3] (DMSO:H2O 1:1); “G” in data set [3] (DMSO:H2O 1:2); “P” in data set [3] (EtOH:H2O (1:2)). For the same compound, the “preliminary MGC (stable gel)” value in data set [1] (DMSO:H2O 1:1) and in data set [1] (DMSO:H2O 1:2) was 20.0 mg/mL in each case.
